Experiments:
[1] = Microscopic observation of gel compositions for methylparaben crystalline particles; format: physicochemical
Protocol: Microscopic observations were performed on additional representative batches of brimonidine topical gel compositions and placebo gel compositions containing 1.25% (w/w) carbomer, POBM and other ingredients. The observations have been done on one tube of each batch, with the microscope Axiolab DRBKT Zeiss no. 023733.01 with a camera ICC Zeiss or the microscope Olympus BX60. The microscopic observations were done at 5° C. and room temperature.
Numerous formulations with different ingredients and varying concentrations of the ingredients were made and tested for the presence of the paraben crystals by microscopic observations. The microbiological quality of the formulations was also analyzed by using acceptance-test criteria in preservative-efficacy testing (PET) in the United States Pharmacopeia (USP) and the European Pharmacopoeia (EP).

[2] = Methylparaben concentration in supernatant after centrifugation of a batch with crystals; format: physicochemical
Protocol: Centrifugation was performed on the batch to collect crystals at the bottom of the centrifuge tube, thus removing them from the supernatant.

recrystallization in formulation ([1]; 0.3% (w/w) POBM, addition of 0.1% of EDTA) | supernatant methylparaben as share of the 0.3% (w/w) in the original formulation ([2]; batch originally containing 0.3% (w/w) methylparaben) | methylparaben concentration in the supernatant ([2]; batch originally containing 0.3% (w/w) methylparaben with crystals, after centrifugation) | Compound | crystalline particles in formulation ([1]; methylparaben replaced with Na POBM at 0.3% (w/w))
– | – | – | COC(=O)c1ccc([O-])cc1.[Na+] [Na POBM] | crystalline particles of Na POBM were still observed
immediate recrystallization | about 66% | about 0.2 % (w/w) | COC(=O)c1ccc(O)cc1 [methylparaben] | –

From US20120101104A1, “TOPICAL GEL COMPOSITIONS AND METHODS OF USE” (GALDERMA S.A., priority 2010, published 2012)
